Measured values from patent US11254651B2, “Histone methyltransferase inhibitors” (GLOBAL BLOOD THERAPEUTICS, INC., priority 2016, dated 2022).
Structures can show the parent of a compound that is named as a salt.

The compounds below were run against T1, G9a (Homo sapiens, UniProt Q96KQ7) (assay: G9a AlphaLISA enzymatic activity assay). Conditions: 0.15 nM G9a, 15 uM S-adenosyl-methionine, 100 nM biotinylated histone 3 peptide (1-21), 1 hour room temperature.
T1 sequence (Q96KQ7 1-1210): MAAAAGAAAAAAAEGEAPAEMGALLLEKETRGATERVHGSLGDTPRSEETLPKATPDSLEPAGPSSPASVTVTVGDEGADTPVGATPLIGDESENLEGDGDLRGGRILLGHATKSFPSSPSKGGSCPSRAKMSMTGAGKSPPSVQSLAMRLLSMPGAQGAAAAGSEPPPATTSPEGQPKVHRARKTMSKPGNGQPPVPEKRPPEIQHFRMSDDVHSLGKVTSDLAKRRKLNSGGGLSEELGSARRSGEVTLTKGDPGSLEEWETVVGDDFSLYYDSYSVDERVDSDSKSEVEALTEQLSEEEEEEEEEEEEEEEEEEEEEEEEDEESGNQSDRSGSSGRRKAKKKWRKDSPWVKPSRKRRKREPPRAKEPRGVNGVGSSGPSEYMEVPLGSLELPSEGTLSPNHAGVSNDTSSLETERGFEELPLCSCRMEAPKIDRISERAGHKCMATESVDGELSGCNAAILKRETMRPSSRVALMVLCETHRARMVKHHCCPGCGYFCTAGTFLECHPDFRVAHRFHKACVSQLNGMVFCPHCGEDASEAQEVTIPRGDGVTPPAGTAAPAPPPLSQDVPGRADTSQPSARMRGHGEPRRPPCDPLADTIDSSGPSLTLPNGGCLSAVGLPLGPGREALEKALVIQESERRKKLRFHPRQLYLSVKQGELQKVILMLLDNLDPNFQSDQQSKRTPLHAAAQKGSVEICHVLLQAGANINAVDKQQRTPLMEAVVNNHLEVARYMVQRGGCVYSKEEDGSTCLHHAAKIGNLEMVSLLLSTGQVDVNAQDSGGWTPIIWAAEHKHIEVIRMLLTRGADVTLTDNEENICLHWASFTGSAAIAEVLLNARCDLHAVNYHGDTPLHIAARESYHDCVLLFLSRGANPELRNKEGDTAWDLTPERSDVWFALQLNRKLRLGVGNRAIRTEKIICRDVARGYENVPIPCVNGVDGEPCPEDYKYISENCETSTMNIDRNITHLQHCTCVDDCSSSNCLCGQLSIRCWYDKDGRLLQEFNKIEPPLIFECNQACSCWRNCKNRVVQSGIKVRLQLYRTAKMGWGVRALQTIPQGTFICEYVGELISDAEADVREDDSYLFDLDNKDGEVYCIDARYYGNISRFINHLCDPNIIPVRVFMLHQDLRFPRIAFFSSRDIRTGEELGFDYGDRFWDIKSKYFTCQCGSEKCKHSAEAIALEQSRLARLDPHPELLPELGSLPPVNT
Type: biochemical
Text: The G9a AlphaLISA assay was used to detect the methyl modifications of a biotinylated histone H3 peptide by the compounds. These modifications are done by the histone methyl transferase activity of the G9a enzyme. The assay consists of reading a chemiluminescent signal at 615 nm; this signal is generated by a laser excitation at 680 nm that transfers a reactive singlet oxygen between the donor beads and acceptor beads. Donor beads are streptavidin conjugated and bind to the biotin on the peptide. Acceptor beads are conjugated with an antibody that recognizes the specific G9a methyl mark on the peptide. If there is a methyl mark on the peptide, the acceptor beads will bind to the peptide. Upon binding, the acceptor beads will be in close proximity (<200 nm) of the donor beads and when the donor beads are excited, the transfer of the oxygen can occur and a strong signal will be generated. If there is no methyl mark, the interaction between beads will not occur and signal will be at background levels.
For the assay, the following buffer was used to set up reactions: 50 mM Tris-HCl pH9, 50 mM NaCl, 0.01% Tween-20 and 1 mM DTT (added fresh prior to starting the reactions). The assay is set up by adding a final concentration of 0.15 nM G9a, 15 uM S-adenosyl-methionine and, 100 nM biotinylated histone 3 peptide (1-21). The reaction is incubated at room temperature for 1 hour, and subsequently quenched by the addition of the acceptor beads (anti-H3k9me2 AlphaLISA acceptor beads, PerkinElmer #AL117) at a final concentration of 20 ug/mL. The acceptor beads are incubated for 1 hour. After 1 hour, the donor beads are added at a final concentration of 20 ug/mL (Alpha Streptavidin donor beads, PerkinElmer #6760002). Donor beads are incubated for 0.5 hours. Both donor and acceptor beads are resuspended in AlphaLISA 5X Epigenetics Buffer 1 Kit (PerkinElmer #AL008) prior to addition to the reaction. All manipulations and incubations with the donor and acceptor beads are done in subdued light. Signal is detected in an EnVision plate reader in Alpha mode (see ACS Med Chem Lett. 2014 Jan. 2; 5(2):205-9. doi: 10.1021/m1400496h. eCollection 2014. Discovery and development of potent and selective inhibitors of histone methyltransferase g9a.)
Percent inhibition was calculated for each compound dilution and the concentration that produced 50% inhibition was calculated. This value is presented as the IC50.

For COc1cc2c(N[C@H]3C[C@@H](O)C3)c3c(nc2cc1OCCCN1CCCC1)CCC3 [Entry 57, (1s,3s)-3-({7-methoxy-6-[3-(pyrrolidin-1-yl)propoxy]-1H,2H,3H-cyclopenta[b]quinolin-9-yl}amino)cyclobutan-1-ol formate], which IC50 is on record?
Its IC50 is 33.1 nM.

COc1cc2c(NC3CCC(=O)N(C)C3)c3c(nc2cc1OCCCN1CCCC1)CCC3 (stereo not drawn) [Entry 58, 5-({7-methoxy-6-[3-(pyrrolidin-1-yl)propoxy]-1H,2H,3H-cyclopenta[b]quinolin-9-yl}amino)-1-methylpiperidin-2-one trifluoroacetate] was tested. Which IC50 did it give?
Its IC50 is 46.4 nM.

For COc1cc2c(NC3CNC(=O)C3)c3c(nc2cc1OCCCN1CCCC1)CCC3 (stereo not drawn) [Entry 60, 4-({7-methoxy-6-[3-(pyrrolidin-1-yl)propoxy]-1H,2H,3H-cyclopenta[b]quinolin-9-yl}amino)pyrrolidin-2-one trifluoroacetate], which IC50 is on record?
The IC50 was 14.6 nM.

For COc1cc2c(NC(C3CC3)C3CC3)c3c(nc2cc1OCCCN1CCCC1)CCC3 [Entry 65, N-(dicyclopropylmethyl)-7-methoxy-6-[3-(pyrrolidin-1-yl)propoxy]-1H,2H,3H-cyclopenta[b]quinolin-9-amine formate], which IC50 is on record?
The IC50 was 7.7 nM.

For COc1cc2c(Nc3ccn(C)n3)c3c(nc2cc1OCCCN1CCCC1)CCC3 [Entry 70, N-{7-methoxy-6-[3-(pyrrolidin-1-yl)propoxy]-1H,2H,3H-cyclopenta[b]quinolin-9-yl}-1-methyl-1H-pyrazol-3-amine formate], which IC50 is on record?
The IC50 was 35.8 nM.

How did the IC50 turn out when COC(=O)N1CC(CNc2c3c(nc4cc(OCCCN5CCCC5)c(OC)cc24)CCC3)C1 [Entry 71, methyl 3-[({7-methoxy-6-[3-(pyrrolidin-1-yl)propoxy]-1H,2H,3H-cyclopenta[b]quinolin-9-yl}amino)methyl]azetidine-1-carboxylate formate] was run?
The IC50 was 17 nM.

With COCCCNc1c2c(nc3cc(OCCCN4CCCC4)c(OC)cc13)CCC2 [Entry 73, 7-methoxy-N-(3-methoxypropyl)-6-[3-(pyrrolidin-1-yl)propoxy]-1H,2H,3H-cyclopenta[b]quinolin-9-amine formate] as the compound, how does the IC50 read?
The IC50 was 11.2 nM.

COc1cc2c(NC3CC4CCC(C3)O4)c3ccccc3nc2cc1OCCCN1CCCC1 (stereo not drawn) [Entry 80, 2-methoxy-N-{8-oxabicyclo[3.2.1]octan-3-yl}-3-[3-(pyrrolidin-1-yl)propoxy]acridin-9-amine formate] was tested. Which IC50 did it give?
The IC50 was 65.3 nM.

Which IC50 does the source give for COc1cc2c(NC3CC(=O)N(C4CCC4)C3)c3ccccc3nc2cc1OCCCN1CCCC1 (stereo not drawn) [Entry 87, 1-cyclobutyl-4-({2-methoxy-3-[3-(pyrrolidin-1-yl)propoxy]acridin-9-yl}amino)pyrrolidin-2-one trifluoroacetate] here?
Its IC50 is 18.5 nM.

How did the IC50 turn out when COc1cc2c(NCCC#N)c3ccccc3nc2cc1OCCCN1CCCC1 [Entry 98, 3-({2-methoxy-3-[3-(pyrrolidin-1-yl)propoxy]acridin-9-yl}amino)propanenitrile trifluoroacetate] was run?
Its IC50 is 6.8 nM.

COc1cc2c(NC3CCC(C)(O)CC3)c3ccccc3nc2cc1OCCCN1CCCC1 [Entry 99, (1R,4R)-4-({2-methoxy-3-[3-(pyrrolidin-1-yl)propoxy]acridin-9-yl}amino)-1-methylcyclohexan-1-ol trifluoroacetate] was tested. Which IC50 did it give?
Its IC50 is 17 nM.

Which IC50 does the source give for COc1cc2c(NCC(=O)O)c3ccccc3nc2cc1OCCCN1CCCC1 [Entry 104, 2-({2-methoxy-3-[3-(pyrrolidin-1-yl)propoxy]acridin-9-yl}amino)acetic acid formate] here?
Its IC50 is 134 nM.

With COC(=O)CNc1c2ccccc2nc2cc(OCCCN3CCCC3)c(OC)cc12 [Entry 105, methyl 2-({2-methoxy-3-[3-(pyrrolidin-1-yl)propoxy]acridin-9-yl}amino)acetate formate] as the compound, how does the IC50 read?
The IC50 was 20.6 nM.

With COc1cc2c(NC3CCOCC3)c3cc(C)ccc3nc2cc1OCCCN1CCCC1 [Entry 114, 2-methoxy-7-methyl-N-(oxan-4-yl)-3-[3-(pyrrolidin-1-yl)propoxy]acridin-9-amine formate] as the compound, how does the IC50 read?
The IC50 was 54.3 nM.

Which IC50 does the source give for COc1ccc2nc3cc(OCCCN4CCCC4)c(OC)cc3c(NC3CCOCC3)c2c1 [Entry 115, 2,7-dimethoxy-N-(oxan-4-yl)-3-[3-(pyrrolidin-1-yl)propoxy]acridin-9-amine trifluoroacetate] here?
The IC50 was 215 nM.

How did the IC50 turn out when CNc1c2ccccc2nc2cc(OCCCN3CCC(F)C3)c(OC)cc12 (stereo not drawn) [Entry 117, 3-[3-(3-fluoropyrrolidin-1-yl)propoxy]-2-methoxy-N-methylacridin-9-amine formate] was run?
Its IC50 is 139 nM.

Which IC50 does the source give for CNc1c2ccccc2nc2cc(OCCCN(C)C)c(OC)cc12 [Entry 119, 3-[3-(dimethylamino)propoxy]-2-methoxy-N-methylacridin-9-amine trifluoroacetate] here?
The IC50 was 28.5 nM.

For COc1cc2c(NC(C)C)c3cccc(F)c3nc2cc1OCCCN1CCCC1 [Entry 120, 5-fluoro-2-methoxy-N-(propan-2-yl)-3-[3-(pyrrolidin-1-yl)propoxy]acridin-9-amine formate], which IC50 is on record?
Its IC50 is 62 nM.

Which IC50 does the source give for COc1cc2c(NC(C)C)c3cnccc3nc2cc1OCCCN1CCCC1 [Entry 121, 8-methoxy-N-(propan-2-yl)-7-[3-(pyrrolidin-1-yl)propoxy]benzo[b]1,6-naphthyridin-10-amine formate] here?
Its IC50 is 64.2 nM.

How did the IC50 turn out when COc1cc2c(NC(C)C)c3ncccc3nc2cc1OCCCN1CCCC1 [Entry 122, 8-methoxy-N-(propan-2-yl)-7-[3-(pyrrolidin-1-yl)propoxy]benzo[b]1,5-naphthyridin-10-amine formate] was run?
Its IC50 is 23.8 nM.

For COc1cc2c(NCC(C)(C)O)c3cccnc3nc2cc1OCCCN1CCCC1 [Entry 123, 1-({7-methoxy-8-[3-(pyrrolidin-1-yl)propoxy]benzo[b]1,8-naphthyridin-5-yl}amino)-2-methylpropan-2-ol formate], which IC50 is on record?
Its IC50 is 251 nM.
